These results are taken from patent publication US20240043427A1 (Gilead Sciences, Inc., priority 2020, published 2024).

The target of assay [1] is T1, CD73 (Homo sapiens (Human), UniProt P21589). As to the kind of experiment: CD73 Biochemical IC50 Assay. The following applies: CD73 0.3 nM, AMP 15 uM, 25 mM Tris pH 7.4, 5 mM MgCl2. As to the method:
CD73 Biochemical IC50 Assay
Compound serial dilutions were pre-spotted into Thermo Nunc assay plate. 50 μL CD73 enzyme buffer (CD73 purchased from R&D system=0.6 nM, 25 mM Tris, pH 7.4, 5 mM MgCl2) was added into the assay plate and incubated for 15 mins. […] The samples were run using Rapid fire.

The target in assay [2] is T1, CD73. Nature of the assay: MDA-MB-231 Cell Based CD73 Activity Assay. The settings on record: MDA-MB-231-GFP cells, RPMI medium with 10% human plasma, 200 uM AMP. As to the method: MDA-MB-231 Cell Based CD73 Activity Assay
MDA-MB-231-GFP cells were seeded in 384-well plates (Greiner 781946) at a density of 10000 cells per well in 50 μL of RPMI medium with 10% HP (human plasma). Cells were plated into assay plate with compounds pre-spotted, for an overnight compound treatment. 50 μL of 400 μM AMP (final concentration 200 μM) using a Bio-tek dispenser. Plates were incubated for 100 mins. […] The samples were run using Rapid fire.

Several values for one entry are separate records, joined by “and”; a condition that tells them apart may be missing. Equal values may be shown once. Some results are limits rather than exact numbers.

One may read the IC50 as the concentration that gives 50% inhibition. A higher IC50 goes with weaker potency. What is called EC50 is the concentration needed to bring the measured effect to its halfway point. Higher therefore signals a less potent agent.

T1 sequence (P21589 27-574): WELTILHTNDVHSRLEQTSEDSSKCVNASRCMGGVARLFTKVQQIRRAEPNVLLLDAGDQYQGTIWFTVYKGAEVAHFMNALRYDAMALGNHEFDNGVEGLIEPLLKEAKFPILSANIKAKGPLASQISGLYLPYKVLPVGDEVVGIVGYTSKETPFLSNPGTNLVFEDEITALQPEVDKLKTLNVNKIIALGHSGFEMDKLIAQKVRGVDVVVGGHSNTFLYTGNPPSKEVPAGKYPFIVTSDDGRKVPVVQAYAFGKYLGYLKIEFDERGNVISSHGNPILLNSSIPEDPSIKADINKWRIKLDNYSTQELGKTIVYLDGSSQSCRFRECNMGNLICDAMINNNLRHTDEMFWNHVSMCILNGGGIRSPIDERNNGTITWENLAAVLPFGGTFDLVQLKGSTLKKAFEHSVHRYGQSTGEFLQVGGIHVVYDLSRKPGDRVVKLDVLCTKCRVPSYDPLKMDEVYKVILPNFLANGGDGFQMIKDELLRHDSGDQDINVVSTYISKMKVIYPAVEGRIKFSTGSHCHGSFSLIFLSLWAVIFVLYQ

As to `O=c1[nH]cc(-c2cc([C@H]3C[C@@H]3Cc3ccccc3)c3nccn3n2)c(=O)[nH]1` (racemic) [Example 105, 5-(8-((1S,2R)-2-benzylcyclopropyl)imidazo[1,2-b]pyridazin-6-yl)pyrimidine-2,4(1H,3H)-dione and 5-(8-((1R,2S)-2-benzylcyclopropyl)imidazo[1,2-b]pyridazin-6-yl)pyrimidine-2,4(1H,3H)-dione], half-maximal inhibition against CD73 [1] (IC50) required 285 nM. Moreover, the EC50 on CD73 [2] turned out to be 38.5 nM.

On CD73 [1], `N#Cc1ccc(C[C@H]2C[C@@H]2c2cc(-c3c[nH]c(=O)[nH]c3=O)nn3ccnc23)cc1` (racemic) [Example 111, 4-(41R,2S)-2-(6-(2,4-dioxo-1,2,3,4-tetrahydropyrimidin-5-yl)imidazo[1,2-b]pyridazin-8-yl)cyclopropyl)methyl)benzonitrile and 4-(((1S,2R)-2-(6-(2,4-dioxo-1,2,3,4-tetrahydropyrimidin-5-yl)imidazo[1,2-b]pyridazin-8-yl)cyclopropyl)methyl)benzonitrile] registered an IC50 of 205 nM. Moreover, at CD73 [2], the midpoint of the response, the EC50, lay at 71.5 nM.

At CD73 [1], `O=c1[nH]cc(-c2cc(N3CCC(c4ccc(F)cc4)C3)c3nccn3n2)c(=O)[nH]1` (stereo in doubt) [Example 68, 5-[8-[(3S)-3-(4-fluorophenyl)pyrrolidin-1-yl]imidazo[1,2-b]pyridazin-6-yl]-1H-pyrimidine-2,4-dione] displayed an IC50 of 69.5 nM. The compound also returned an EC50 at CD73 [2] of 67.5 nM.

`Cc1cn2nc(-c3c[nH]c(=O)[nH]c3=O)cc(C3CC3)c2n1` [Example 1, 5-(8-cyclopropyl-2-methyl-imidazo[1,2-b]pyridazin-6-yl)-1H-pyrimidine-2,4-dione] yielded an IC50 against CD73 [1] of 507 nM. For the same compound, the EC50 at CD73 [2] stood at 413 nM.

On to `O=c1[nH]cc(-c2cc(C3CC3)c3nc(-c4ccccc4)cn3n2)c(=O)[nH]1` [Example 2, 5-(8-cyclopropyl-2-phenyl-imidazo[1,2-b]pyridazin-6-yl)-1H-pyrimidine-2,4-dione], for which the IC50 against CD73 [1] was determined as 32.4 nM. In addition, at CD73 [2], a half-maximal response (EC50) required 53.3 nM.

`CCOC(=O)c1cn2nc(-c3c[nH]c(=O)[nH]c3=O)cc(C3CC3)c2n1` [Example 3, Ethyl 8-cyclopropyl-6-(2,4-dioxo-1H-pyrimidin-5-yl)imidazo[1,2-b]pyridazine-2-carboxylate] registered an IC50 against CD73 [1] of 235 nM. The compound also registered an EC50 on CD73 [2] of 195 nM.

`O=c1[nH]cc(-c2cc(N3CCOCC3)c3nccn3n2)c(=O)[nH]1` [Example 10, 5-(8-morpholinoimidazo[1,2-b]pyridazin-6-yl)-1H-pyrimidine-2,4-dione] registered an IC50 against CD73 [1] of 980 nM. Further, it took 473 nM to reach a half-maximal effect at CD73 [2] (EC50).

`O=c1[nH]cc(-c2cc(-n3ccnc3)c3nccn3n2)c(=O)[nH]1` [Example 11, 5-(8-imidazol-1-ylimidazo[1,2-b]pyridazin-6-yl)-1H-pyrimidine-2,4-dione] returned an IC50 on CD73 [1] of 110 nM. At CD73 [2], the response was half-maximal at 74.1 nM (EC50).

Take `O=c1[nH]cc(-c2cc(NCc3ccccc3)c3nccn3n2)c(=O)[nH]1` [Example 12, 5-(8-(benzylamino)imidazo[1,2-b]pyridazin-6-yl)pyrimidine-2,4(1H,3H)-dione]: the IC50 against CD73 [1] was 479 nM and 653 nM. The EC50 on CD73 [2] is 508 nM and 689 nM.

Consider `CN(Cc1ccccc1)c1cc(-c2c[nH]c(=O)[nH]c2=O)nn2ccnc12` [Example 13, 5-(8-(benzyl(methyl)amino)imidazo[1,2-b]pyridazin-6-yl)pyrimidine-2,4(1H,3H)-dione], for which the IC50 against CD73 [1] was 368 nM and 607 nM. Further, the EC50 at CD73 [2] was 692 nM and 896 nM.

In turn, `O=c1[nH]cc(-c2cc(C3CCC(F)(F)CC3)c3nccn3n2)c(=O)[nH]1` [Example 14, 5-(8-(4,4-difluorocyclohexyl)imidazo[1,2-b]pyridazin-6-yl)pyrimidine-2,4(1H,3H)-dione] yielded an IC50 against CD73 [1] of 301 nM. Also, the EC50 at CD73 [2] was found to be 79.2 nM.

In the case of `CC(C)c1cc(-c2c[nH]c(=O)[nH]c2=O)nn2cc(C(F)(F)F)nc12` [Example 15, 5-(8-isopropyl-2-(trifluoromethyl)imidazo[1,2-b]pyridazin-6-yl)pyrimidine-2,4(1H,3H)-dione], the IC50 at CD73 [1] is 2350 nM. Further, the EC50 at CD73 [2] is 920 nM.

`CC(C)c1cc(-c2c[nH]c(=O)[nH]c2=O)nn2cnnc12` [Example 16, 5-(8-isopropyl-[1,2,4]triazolo[4,3-b]pyridazin-6-yl)pyrimidine-2,4(1H,3H)-dione] yielded an IC50 against CD73 [1] of 362 nM. The compound further returned an EC50 on CD73 [2] of 333 nM.

Consider `O=c1[nH]cc(-c2cc(Cc3ccccc3)c3nccn3n2)c(=O)[nH]1` [Example 17, 5-(8-benzylimidazo[1,2-b]pyridazin-6-yl)-1H-pyrimidine-2,4-dione], for which the IC50 against CD73 [1] was over 2500 nM. On CD73 [2], this compound came in with an EC50 of 3670 nM.

At CD73 [1], `O=c1[nH]cc(-c2cc(C3(C(F)(F)F)CC3)c3nccn3n2)c(=O)[nH]1` [Example 18, 5-[8-[1-(trifluoromethyl)cyclopropyl]imidazo[1,2-b]pyridazin-6-yl]-1H-pyrimidine-2,4-dione] registered an IC50 of over 2500 nM. Further, at CD73 [2], the EC50 was 20400 nM.

At CD73 [1], `O=c1[nH]cc(-c2cc(C3(C(F)(F)F)CC3)c3nc(C4(C(F)(F)F)CC4)cn3n2)c(=O)[nH]1` [Example 19, 5-[2,8-bis[1-(trifluoromethyl)cyclopropyl]imidazo[1,2-b]pyridazin-6-yl]-1H-pyrimidine-2,4-dione] gave an IC50 of over 2500 nM. This compound yielded an EC50 on CD73 [2] of over 25000 nM.

Consider `O=c1[nH]cc(-c2cc(CS(=O)(=O)c3ccccc3)c3nccn3n2)c(=O)[nH]1` [Example 20, 5-[8-(benzenesulfonylmethyl)imidazo[1,2-b]pyridazin-6-yl]-1H-pyrimidine-2,4-dione], for which the IC50 on CD73 [1] was over 2500 nM. The EC50 on CD73 [2] was over 25000 nM.

Turning to `O=c1[nH]cc(-c2cc(CS(=O)(=O)c3ccccc3)c3nc(CS(=O)(=O)c4ccccc4)cn3n2)c(=O)[nH]1` [Example 21, 5-[2,8-bis(benzenesulfonylmethyl)imidazo[1,2-b]pyridazin-6-yl]-1H-pyrimidine-2,4-dione], the IC50 against CD73 [1] was over 2500 nM. In addition, the EC50 at CD73 [2] was over 25000 nM.

At CD73 [1], `O=c1[nH]cc(-c2ccc3nccn3n2)c(=O)[nH]1` [Example 23, 5-(imidazo[1,2-b]pyridazin-6-yl)pyrimidine-2,4(1H,3H)-dione] returned an IC50 of over 2500 nM. The EC50 at CD73 [2] is over 25000 nM.

As to `O=c1[nH]cc(-c2cc(OC3CC3)c3nccn3n2)c(=O)[nH]1` [Example 24, 5-(8-cyclopropoxyimidazo[1,2-b]pyridazin-6-yl)pyrimidine-2,4(1H,3H)-dione], the IC50 against CD73 [1] was found to be 1260 nM. This compound also registered an EC50 at CD73 [2] of 1230 nM.

For the compound `CC(C)Oc1cc(-c2c[nH]c(=O)[nH]c2=O)nn2ccnc12` [Example 25, 5-(8-isopropoxyimidazo[1,2-b]pyridazin-6-yl)pyrimidine-2,4(1H,3H)-dione], the IC50 against CD73 [1] is 657 nM and 557 nM. The EC50 at CD73 [2] is 361 nM and 429 nM.

At CD73 [1], `O=c1[nH]cc(-c2cc(OCc3ccccc3)c3nccn3n2)c(=O)[nH]1` [Example 26] yielded an IC50 of 161 nM. The same compound came in with an EC50 at CD73 [2] of 184 nM.

In the case of `O=c1[nH]cc(-c2cc(C3CC3)n3nccc3n2)c(=O)[nH]1` [Example 27, 5-(7-cyclopropylpyrazolo[1,5-a]pyrimidin-5-yl)pyrimidine-2,4(1H,3H)-dione], the IC50 at CD73 [1] was determined as 90.4 nM. This compound gave an EC50 at CD73 [2] of 145 nM.
